Where two headings read alike, the source gives them in different places.
System: Escherichia coli (ATCC25922) or Staphylococcus aureus (ATCC25923)
Experiment: Antibacterial MIC, microdilution method in Mueller-Hinton medium
Format: cell-based
Details: for MIC: Escherichia coli, 18 h, read-out: Potency (MIC)
Description: The antibacterial activity of the Formula I compounds was evaluated against standard bacterial strains by determining the minimal inhibitory concentration (MIC) to block growth. Each drug was assayed by the microdilution method in Mueller-Hinton medium, as recommended by the National Committee for Clinical Laboratory Standards. Approved Standard M7-A5: Methods for Dilution Antimicrobial Susceptibility Tests for Bacteria That Grow Aerobically 5th Ed. (National Committee for Clinical Laboratory Standards, Wayne, Pa., 2000). The tested bacterial strains included Escherichia coli (American Type Collection ATCC25922), Staphylococcus aureus (ATCC25923), and Pseudomonas aeruginosa (ATCC27853). Two-fold serial dilutions of each compound ranging from 64 to 0.5 μg/ml were tested in duplicate. The MIC was determined as the lowest concentration of each compound that prevented bacterial growth after 18 hours of incubation at 35° C. […] The mass of each compound in the Table was confirmed by LC-MS.

[1] = MIC in E. coli or S. aureus, two-fold serial dilutions 64 to 0.5 μg/ml in duplicate, 18 hours of incubation at 35° C.

Row | Compound | MIC [µg/mL] | other results
1 | Cc1ccc(C(=O)Nc2ccc(Nc3nc(N4C[C@H](N)C[C@H](N)C4)nc(N4C[C@H](N)C[C@H](N)C4)n3)cc2C)c(O)c1 [N-[4-(2-hydroxy-4-methyl-benzoylamino)-3-methyl-phenyl]-4,6-Bis-((3R,5S)-3,5-diamino-piperidin-1-yl)-[1,3,5]triazine-2-amine] | < 64 | 
2 | Cl.Oc1cccc(C2CCN(c3nc(N4CCCCC4)nc(N4CCCCC4)n3)CC2)c1 [3-[1-(4,6-Bis-((3R,5S)-3,5-diamino-piperidin-1-yl)-[1,3,5]triazin-2-yl)-piperidin-4-yl]-phenyl] |  | MIC [1]: > 64 µg/mL
3 | O=C(Nc1ccccc1)c1ccccc1Nc1nc(N2CCCCC2)nc(N2CCCCC2)n1 [N-(2-phenylcarbamoyl-phenyl)-44,6-Bis-((3R,5S)-3,5-diamino-piperidin-1-yl)-[1,3,5]triazine-2-amine] |  | MIC [1]: > 64 µg/mL
4 | N-(4-thioureido-iminomethyl-phenyl)-4,6-Bis-((3R,5S)-3,5-diamino-piperidin-1-yl)-[1,3,5]triazine-2-amine |  | Potency (MIC) [1]: + (+ means MIC<64 μg/ml in E. coli or S. aureus)
5 | NC[C@@H]1C[C@H](CN)CN(c2nc(Nc3ccc4c(c3)-c3ccccc3C4=O)nc(N3C[C@H](N)C[C@H](N)C3)n2)C1 [3-[4-((3R,5S)-3,5-Bis-(aminomethyl)-piperidin-1-yl)-6-((3R,5S)-3,5-diamino-piperidin-1-yl)-[1,3,5]triazin-2-ylamino]-fluoren-9-one] | < 64 | 
6 | COc1nc(Nc2ccc(C(=O)Oc3ccccc3)c(O)c2)nc(N2CCCCC2)n1.Cl [4-[4-((3R,5S)-3,5-Diamino-piperidin-1-yl)-6-methoxy-[1,3,5]triazin-2-ylamino]-2-hydroxy-benzoic acidphenylester] |  | MIC [1]: < 16 µg/mL
7 | Cc1cc(=O)oc2cc(Nc3nc(N4C[C@H](N)C[C@H](N)C4)nc(N4C[C@@H](N)[C@@H](N)C4)n3)ccc12 [7-[4-((3R,5S)-3,5-diamino-piperidin-1-yl)-6-((3R,4S)-3,4-diamino-pyrrolidin-1-yl)-[1,3,5]triazin-2-ylamino]-4-methyl-chromen-2-one] | > 64 | 
8 | 7-[4-((2S,4S)-4-Amino-2-aminomethyl-pyrrolidin-11-yl)-6-((3R,5S)-3,5-diamino-piperidin-1-yl)-[1,3,5]triazin-2-ylamino]-4-methyl-chromen-2-one |  | Potency (MIC) [1]: − (− means MIC>64 μg/ml in E. coli or S. aureus)
9 | COc1nc(Nc2ccc(NC(=O)c3ccc4ccccc4c3O)cc2)nc(N2C[C@H](N)C[C@H](N)C2)n1 [1-Hydroxy-naphthalene-2-carboxylic acid {4-[4-((3R,5S)-3,5-diamino-piperidin-1-yl)-6-methoxy-[1,3,5]triazin-2-ylamino]-phenyl}-amide] | < 16 | 
10 | COc1nc(Nc2ccc(NC(=O)c3ccc(C)cc3)c(O)c2)nc(N2C[C@H](N)C[C@H](N)C2)n1 [N-{4-[4-((3R,5S)-3,5-Diamino-piperidin-1-yl)-6-methoxy-[1,3,5]triazin-2-ylamino]-2-hydroxy-phenyl}-4-methyl-benzamide] | < 64 | 
11 | Cc1ccc(S(=O)(=O)NC(Cc2ccccc2)C(=O)Nc2ccc(Nc3nc(N4CCCCC4)nc(N4CCCCC4)n3)cc2O)cc1.Cl [N-{3-hydroxy-4-[3-phenyl-2-(toluene-4-sulfonylamino)-propionylamino]-phjenyl}-4,6-Bis-((3R,5S)-3,5-diamino-piperidin-1-yl)-[1,3,5]triazine-2-amine] |  | MIC [1]: < 16 µg/mL
12 | N[C@@H]1C[C@H](N)CN(c2nc(Nc3ccc(NC(=O)c4ccc(Cl)cc4)c(O)c3)nc(N3C[C@@H](N)C[C@@H](O)C3)n2)C1 [N-{4-[4-((3S,5R)-3-Amino-5-hydroxy-piperidin-1-yl)-6-((3S,5R)-3,5-diamino-piperidin-1-yl)-[1,3,5]triazin-2-ylamino]-2-hydroxy-phenyl}-4-chloro-benzamide] | < 16 | 
13 | Cl.N[C@@H]1C[C@H](N)CN(c2nc(Nc3ccc4[nH]cnc4c3)nc(N3C[C@H](N)C[C@H](N)C3)n2)C1 [N-(1H-benzoimidazol-5-yl)-4,6-Bis-((3R,5S)-3,5-diamino-piperidin-1-yl)-[1,3,5]triazine-2-amine] |  | MIC [1]: < 64 µg/mL
14 | N[C@@H]1C[C@H](N)CN(c2nc(Nc3ccc(C(=O)CC(=O)Nc4ccc(F)cc4)cc3)nc(N3C[C@H](N)C[C@H](N)C3)n2)C1 [N-{4-[2-(4-fluoro-phenylcarbamoyl)-acetyl]-phenyl}-4,6-Bis-((3R,5S)-3,5-diamino-piperidin-1-yl)-[1,3,5]triazine-2-amine] | < 16 | 
15 | N[C@@H]1C[C@H](N)CN(c2nc(NNc3cc(Cl)cc(Cl)c3)nc(N3C[C@H](N)C[C@H](N)C3)n2)C1 [N-(4,6-Bis-((3R,5S)-3,5-diamino-piperidin-1-yl)-[1,3,5]triazin-2-yl)-N′-(3,5-Dichloro-phenyl)-hydrazine] | < 64 | 
16 | CSc1nnc(Nc2nc(N3C[C@H](N)C[C@H](N)C3)nc(N3C[C@H](N)C[C@H](N)C3)n2)s1.Cl [N-(5-methylsulfanyl-[1,3,4]thiadiazol-2-yl)-4,6-Bis-((3R,5S)-3,5-diamino-piperidin-1-yl)-[1,3,5]triazine-2-amine] |  | MIC [1]: > 64 µg/mL
17 | NCCN(CCN)c1nc(Nc2ccc(NC(=O)C(=O)c3c[nH]c4ccccc34)c(O)c2)nc(N2C[C@H](N)C[C@H](N)C2)n1 [N-{4-[4-[Bis-(2-amino-ethyl)-amino]-6-((3R,5S)-3,5-diamino-piperidin-1-yl)-[1,3,5]triazin-2-ylamino]-2-hydroxy-phenyl}-2-(1H-indol-3-yl)-2-oxo-acetamide] | < 16 | 
18 | N[C@@H]1C[C@H](N)CN(c2nc(Nc3ccc(NC(=O)CCCC[C@@H]4SC[C@H]5NC(=O)N[C@@H]45)c(O)c3)nc(N3C[C@H](N)C[C@H](N)C3)n2)C1 [5-((3aR,4S,6aS)-2-Oxo-hexahydro-thieno[3,4-d]imidazol-4-yl)-pentanoicacid {4-[4-((3R,5S)-3,5-diamino-piperidin-1-yl)-6-((3S,5R)-3,5-diamino-piperidin-1-yl)-[1,3,5]triazin-2-ylamino]-2-hydroxy-phenyl}-amide] | > 64 | 
19 | N[C@@H]1C[C@H](N)CN(c2nc(Nc3ccc(C(=O)Nc4cccc(C(F)(F)F)c4)c(O)c3)nc(N3C[C@H](N)C[C@H](N)C3)n2)C1 [N-[3-hydroxy-4-(3-trifluoromethyl-phenylcarbamoyl)-phenyl]-4,6-Bis-((3R,5S)-3,5-diamino-piperidin-1-yl)-[1,3,5]triazine-2-amine] | < 16 | 
20 | Cc1ccc(S(=O)(=O)Nc2ccccc2Nc2nc(N3C[C@H](N)C[C@H](N)C3)nc(N3C[C@H](N)C[C@H](N)C3)n2)cc1 [N-[2-(toluene-4-sulfonylamino)-phenyl]-4,6-Bis-((3R,5S)-3,5-diamino-piperidin-1-yl)-[1,3,5]triazine-2-amine] | > 64 | 
21 | Cl.O=C(Oc1ccccc1)c1ccc(Nc2nc(N3CCCCC3)nc(N3CCCCC3)n2)cc1O [drawing 569, 4-[4,6-Bis-((3R,5S)-3,5-diamino-piperidin-1-yl)-[1,3,5]triazin-2-ylamino]-2-hydroxy-benzoic acidphenyl ester] |  | Potency (MIC) [1]: ++ (++ means MIC<16 μg/ml in E. coli or S. aureus)
22 | N[C@@H]1C[C@H](N)CN(c2nc(Nc3ccc(NC(=O)c4ccc(Cl)cc4)c(O)c3)nc(N3CCC(N4CCCC4)CC3)n2)C1 [4-Chloro-N-{4-[4-((3S,5R)-3,5-diamino-piperidin-1-yl)-6-(4-pyrrolidin-1-yl-piperidin-1-yl)-[1,3,5]triazin-2-ylamino]-2-hydroxy-phenyl}-benzamide] | < 64 | 

Reference: US7223759B2, “Antibacterial 3,5-diaminopiperidine-substituted aromatic and heteroaromatic compounds” (Anadys Pharmaceuticals, Inc., priority 2003, dated 2007)
